experiment: Transcellular transport test using Caco2 cell; assay type: in vitro ADME; details: human, Caco-2, apical-to-basolateral (A-to-B), pH=7.4, 10 µM compound
Description: Caco2 cells (purchased from ATCC) were cultured in DMEM medium (Thermo Fisher Scientific, Inc., 11965) containing 10% FBS (Thermo Fisher Scientific, Inc., 10082) and 1% penicillin/streptomycin/amphotericin B (Thermo Fisher Scientific, Inc., 15240). A transcellular transport test was carried out in accordance with MultiScreen Caco2 Drug Transport Assembly in a 96-well system (Application Note AN1727EN, MultiScreen Caco-2 Assay System, Merck) by partially modifying it. The Caco2 cells were inoculated at a cell density of 4×10^4 cells/well onto a micropore polycarbonate insert of a 96-well plate (Merck, Millcell-96 culture insert plate 0.4 μm pore size, well membrane area=0.11 cm^2, PSHT004S5) and cultured for 20 to 22 days, and the resulting monolayer was used in the transcellular transport test. The medium of the inoculated cells was replaced with a fresh one every 3 to 4 days.
Apical-to-basolateral (A-to-B) transport in the Caco2 cell monolayer membrane was performed by using HBSS (Thermo Fisher Scientific, Inc., 14025) medium (pH=7.4) containing 20 mM HEPES (Thermo Fisher Scientific, Inc., 15630), and adding HEPES-containing HBSS medium containing 10 µM compound (a 10 mM solution of the compound in DMSO was added at a 1000-fold dilution; final DMSO concentration: 0.1%) at 75 μL/well to the apical side and HEPES-containing HBSS medium supplemented with no compound at 250 μL/well to the basolateral side, followed by culture at 37° C. for 90 minutes. After culture, a 100 μL aliquot was collected from the basolateral side, and the concentration of a permeated compound was measured by LC-MS/MS under measurement conditions mentioned later. Papp (apparent permeability; cm/sec) was calculated from the determined concentration. Papp was determined according to the expression given below by calculating the slope (dA/dt; nmol/sec) of a straight line drawn between two points 0 minutes and zero amount of the compound in a graph plotted with an assay time (90 min) on the abscissa against the amount of the compound in the solution on the permeated side on the ordinate. As for an assay concentration, the concentration in the compound in the HEPES-containing HBSS medium containing the added compound was measured by UV-HPLC under measurement conditions mentioned later.
C0: assay concentration, S: plate membrane area=0.11 cm^2
• LC: LC20 or LC30 HPLC system manufactured by Shimadzu Corp. • Column: Phenomenex Kinetex C18 (50 mm×2.1 mm, 2.6 μm) • Column temperature: 40° C. • Flow rate: 0.3 mL/min • Mobile phase A: 0.1% aqueous formic acid solution • Mobile phase B: 0.1% formic acid, 50% acetonitrile/methanol mixed solution • Gradient: 0-2 min; A/B=90/10 to 10/90, 2-3 min; A/B=10/90, 3-3.01 min; A/B=10/90 to 90/10 • MS: Q-Trap3200 manufactured by AB Sciex Pte. Ltd. • Ionization: ESI • Mode: Positive
• LC: LC20 or LC30 HPLC system manufactured by Shimadzu Corp. • Column: Phenomenex Kinetex C18 (100 mm×2.1 mm, 2.6 μm) • Column temperature: 40° C. • Flow rate: 0.25 mL/min • Mobile phase A: 0.1% aqueous formic acid solution • Mobile phase B: 0.1% formic acid, 50% acetonitrile/methanol mixed solution • Gradient: 0-3 min; A/B=90/10, 3-11 min; A/B=90/10 to 5/95, 11-15 min; A/B=5/95, 15-15.1 min; A/B=5/95 to 90/10 • UV detector: photodiode array detector
A: Papp>1×10^−6 (cm/sec), B: 1×10^−6 (cm/sec)≥Papp>5×10^−7 (cm/sec), C: 5×10^−7 (cm/sec)≥Papp>1×10^−7 (cm/sec), or D: Papp≤1×10^−7 (cm/sec).

Row | Structure (SMILES) | Papp A→B at 90 min, 10 µM [×10⁻⁶ cm/s]
1 | O=C(O)C[C@H](NC(=O)CNC(=O)c1cc(NC2=NCC(F)CN2)c2cn[nH]c2c1)c1cccc(C(F)(F)F)c1F (stereo partly drawn) [9-(b), (3S)-3-(2-(4-((5-fluoro-1,4,5,6-tetrahydropyrimidin-2-yl)amino)-1H-indazole-6-carboxamido)acetamido)-3-(2-fluoro-3-(trifluoromethyl)phenyl)propanoic acid] | > 1
2 | O=C(O)C[C@H](NC(=O)CNC(=O)c1cc(NC2=NCC(F)CN2)c2cn[nH]c2c1)c1cccc(C(F)(F)F)c1Cl (stereo partly drawn) [10-(b), (3S)-3-(2-chloro-3-(trifluoromethyl)phenyl)-3-(2-(4-((5-fluoro-1,4,5,6-tetrahydropyrimidin-2-yl)amino)-1H-indazole-6-carboxamido)acetamido)propanoic acid] | > 1
3 | O=C(O)C[C@H](NC(=O)CNC(=O)c1cc(NC2=NCC(F)CN2)c2cn[nH]c2c1)c1cc(C(F)(F)F)ccc1F (stereo partly drawn) [11-(b), (3S)-3-(2-(4-((5-fluoro-1,4,5,6-tetrahydropyrimidin-2-yl)amino)-1H-indazole-6-carboxamido)acetamido)-3-(2-fluoro-5-(trifluoromethyl)phenyl)propanoic acid] | > 1
4 | O=C(O)C[C@H](NC(=O)CNC(=O)c1cc(NC2=NCC(F)CN2)c2cn[nH]c2c1)c1cc(C(F)(F)F)ccc1Cl (stereo partly drawn) [12-(b), (3S)-3-(2-chloro-5-(trifluoromethyl)phenyl)-3-(2-(4-((5-fluoro-1,4,5,6-tetrahydropyrimidin-2-yl)amino)-1H-indazole-6-carboxamido)acetamido)propanoic acid] | > 1
5 | Cc1ccc([C@H](CC(=O)O)NC(=O)CNC(=O)c2cc(NC3=NCC(F)CN3)c3cn[nH]c3c2)cc1C(F)(F)F (stereo partly drawn) [14-(b), (3S)-3-(2-(4-((5-fluoro-1,4,5,6-tetrahydropyrimidin-2-yl)amino)-1H-indazole-6-carboxamido)acetamido)-3-(4-methyl-3-(trifluoromethyl)phenyl)propanoic acid] | > 1
6 | COc1ccc([C@H](CC(=O)O)NC(=O)CNC(=O)c2cc(NC3=NCC(F)CN3)c3cn[nH]c3c2)cc1Br (stereo partly drawn) [16-(b), (3S)-3-(3-bromo-4-methoxyphenyl)-3-(2-(4-((5-fluoro-1,4,5,6-tetrahydropyrimidin-2-yl)amino)-1H-indazole-6-carboxamido)acetamido)propanoic acid] | > 1
7 | O=C(O)C[C@H](NC(=O)CNC(=O)c1cc(NC2=NCC(F)CN2)c2cn[nH]c2c1)c1cc(Cl)cc(Cl)c1 (stereo partly drawn) [17-(b), (3S)-3-(3,5-dichlorophenyl)-3-(2-(4-((5-fluoro-1,4,5,6-tetrahydropyrimidin-2-yl)amino)-1H-indazole-6-carboxamido)acetamido)propanoic acid] | > 1
8 | O=C(O)C[C@H](NC(=O)CNC(=O)c1cc(NC2=NCC(F)CN2)c2cn[nH]c2c1)c1cc(Cl)cc(Br)c1 (stereo partly drawn) [18-(b), (3S)-3-(3-bromo-5-chlorophenyl)-3-(2-(4-((5-fluoro-1,4,5,6-tetrahydropyrimidin-2-yl)amino)-1H-indazole-6-carboxamido)acetamido)propanoic acid] | > 1
9 | O=C(O)C[C@H](NC(=O)CNC(=O)c1cc(NC2=NCC(F)CN2)c2cn[nH]c2c1)c1cc(Br)cc(Br)c1 (stereo partly drawn) [19-(b), (3S)-3-(3,5-dibromophenyl)-3-(2-(4-((5-fluoro-1,4,5,6-tetrahydropyrimidin-2-yl)amino)-1H-indazole-6-carboxamido)acetamido)propanoic acid] | > 1
10 | O=C(O)C[C@H](NC(=O)CNC(=O)c1cc(NC2=NCC(F)CN2)c2cn[nH]c2c1)c1cc(Br)cc(I)c1 (stereo partly drawn) [20-(b), (3S)-3-(3-bromo-5-iodophenyl)-3-(2-(4-((5-fluoro-1,4,5,6-tetrahydropyrimidin-2-yl)amino)-1H-indazole-6-carboxamido)acetamido)propanoic acid] | > 1

Further lines, results first:

Row | Papp A→B at 90 min, 10 µM [×10⁻⁶ cm/s] | Structure (SMILES)
11 | > 1 | O=C(O)C[C@H](NC(=O)CNC(=O)c1cc(NC2=NCC(F)CN2)c2cn[nH]c2c1)c1cc(Cl)cc(C(F)(F)F)c1 (some centres unmarked) [1-(b)]
12 | 0.5 to 1 | O=C(O)C[C@H](NC(=O)CNC(=O)c1cc(NC2=NCC(F)CN2)c2cn[nH]c2c1)c1cc(Br)cc(C(F)(F)F)c1 (stereo partly drawn) [2-(b), (3S)-3-(3-bromo-5-(trifluoromethyl)phenyl)-3-(2-(4-((5-fluoro-1,4,5,6-tetrahydropyrimidin-2-yl)amino)-1H-indazole-6-carboxamido)acetamido)propanoic acid]
13 | > 1 | O=C(O)C[C@H](NC(=O)CNC(=O)c1cc(NC2=NCC(F)CN2)c2cn[nH]c2c1)c1cc(I)cc(C(F)(F)F)c1 (stereo partly drawn) [3-(b), (3S)-3-(2-(4-((5-fluoro-1,4,5,6-tetrahydropyrimidin-2-yl)amino)-1H-indazole-6-carboxamido)acetamido)-3-(3-iodo-5-(trifluoromethyl)phenyl)propanoic acid]
14 | > 1 | Cc1cc([C@H](CC(=O)O)NC(=O)CNC(=O)c2cc(NC3=NCC(F)CN3)c3cn[nH]c3c2)cc(C(F)(F)F)c1 (stereo partly drawn) [4-(b), (3S)-3-(2-(4-((5-fluoro-1,4,5,6-tetrahydropyrimidin-2-yl)amino)-1H-indazole-6-carboxamido)acetamido)-3-(3-methyl-5-(trifluoromethyl)phenyl)propanoic acid]
15 | 0.5 to 1 | COc1cc([C@H](CC(=O)O)NC(=O)CNC(=O)c2cc(NC3=NCC(F)CN3)c3cn[nH]c3c2)cc(C(F)(F)F)c1 (stereo partly drawn) [5-(b), (3S)-3-(2-(4-((5-fluoro-1,4,5,6-tetrahydropyrimidin-2-yl)amino)-1H-indazole-6-carboxamido)acetamido)-3-(3-methoxy-5-(trifluoromethyl)phenyl)propanoic acid]
16 | > 1 | O=C(O)C[C@H](NC(=O)CNC(=O)c1cc(NC2=NCC(F)CN2)c2cn[nH]c2c1)c1cc(F)cc(C(F)(F)F)c1 (stereo partly drawn) [6-(b), (3S)-3-(2-(4-((5-fluoro-1,4,5,6-tetrahydropyrimidin-2-yl)amino)-1H-indazole-6-carboxamido)acetamido)-3-(3-fluoro-5-(trifluoromethyl)phenyl)propanoic acid]
17 | 0.5 to 1 | O=C(O)C[C@H](NC(=O)CNC(=O)c1cc(NC2=NCC(F)CN2)c2cn[nH]c2c1)c1cc(C(F)(F)F)cc(C(F)(F)F)c1 (stereo partly drawn) [7-(b), (3S)-3-(3,5-bis(trifluoromethyl)phenyl)-3-(2-(4-((5-fluoro-1,4,5,6-tetrahydropyrimidin-2-yl)amino)-1H-indazole-6-carboxamido)acetamido)propanoic acid]
18 | 0.5 to 1 | O=C(O)C[C@H](NC(=O)CNC(=O)c1cc(NC2=NCC(F)CN2)c2cn[nH]c2c1)c1cc(-n2cccn2)cc(C(F)(F)F)c1 (stereo partly drawn) [8-(b), (3S)-3-(3-(1H-pyrazol-1-yl)-5-(trifluoromethyl)phenyl)-3-(2-(4-((5-fluoro-1,4,5,6-tetrahydropyrimidin-2-yl)amino)-1H-indazole-6-carboxamido)acetamido)propanoic acid]
19 | > 1 | O=C(O)C[C@H](NC(=O)CNC(=O)c1cc(NC2=NCC(F)CN2)c2cn[nH]c2c1)c1ccc(F)c(C(F)(F)F)c1 (stereo partly drawn) [13-(b), (3S)-3-(2-(4-((5-fluoro-1,4,5,6-tetrahydropyrimidin-2-yl)amino)-1H-indazole-6-carboxamido)acetamido)-3-(4-fluoro-3-(trifluoromethyl)phenyl)propanoic acid]
20 | > 1 | O=C(O)C[C@H](NC(=O)CNC(=O)c1cc(NC2=NCC(F)CN2)c2cn[nH]c2c1)c1cc(Cl)c(F)c(C(F)(F)F)c1 (stereo partly drawn) [15-(b), (3S)-3-(3-chloro-4-fluoro-5-(trifluoromethyl)phenyl)-3-(2-(4-((5-fluoro-1,4,5,6-tetrahydropyrimidin-2-yl)amino)-1H-indazole-6-carboxamido)acetamido)propanoic acid]
